Experimental data published in article PMC9667936, “Functional mapping of the 14-3-3 hub protein as a guide to design 14-3-3 molecular glues” (Chemical Science, 2022).
Where a SMILES comes first, the peptide text is derived from it. [ ]: non-standard residue; d: D form. ξ: configuration not given here. Phe(4-NO2) = N[C@@H](Cc1ccc([N+](=O)[O-])cc1)C(=O)O; ξAla(4-thiazolyl) = NC(Cc1cscn1)C(=O)O; pS = N[C@@H](COP(=O)(O)O)C(=O)O; β3hS = N[C@@H](CO)CC(=O)O; Nva = CCC[C@H](N)C(=O)O; ξβ3hS = NC(CO)CC(=O)O; βAla = NCCC(=O)O

Molecular target: T1, 14-3-3γ (Homo sapiens, UniProt P61981)
T1 construct: made in house; host or cells: E. coli NiCo21 (DE3)
T1 sequence (P61981 1-247): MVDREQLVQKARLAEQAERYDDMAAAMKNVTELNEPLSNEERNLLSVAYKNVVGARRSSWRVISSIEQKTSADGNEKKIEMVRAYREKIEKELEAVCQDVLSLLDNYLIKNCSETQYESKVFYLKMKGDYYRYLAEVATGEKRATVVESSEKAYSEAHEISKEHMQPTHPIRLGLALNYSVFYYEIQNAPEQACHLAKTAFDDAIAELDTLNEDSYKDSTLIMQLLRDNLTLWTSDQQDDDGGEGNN
Assay: Fluorescence anisotropy (FA) binary binding study: 14-3-3 titrated to fluorescein-labelled peptide
Details: for ΔΔG of point mutation (FA): relative to 1, mean ± SD, SD; for Affinity Kd / Kd: Table S4, point-mutated peptides; for ΔΔG of point mutation (FA) / Affinity Kd / Kd: FA; for Affinity Kd: 10 nM FITC-labelled peptide; for Kd: 14-3-3 titrated to 10 nM FITC-labelled peptide, HEPES pH 7.4, room temperature, 4PL fit, read-out: Affinity Kd; for ΔG (FA): Table S1
Procedure, shortened: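 N-terminal His6-tagged full-length human 14-3-3γ expressed in E. coli, Ni-NTA purified and dialyzed into 25 mM HEPES pH 8.0, 100 mM NaCl, 10 mM MgCl2, 500 μM TCEP. Tag-cleaved 14-3-3σ truncated after T231 used for crystallography. Labelled peptides made by Fmoc solid-phase synthesis.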

[1] = Table S4, FA Kd / Kd of 1, replicate 1
[2] = Table S4, FA Kd / Kd of 1, replicate 2
[3] = Table S4, FA Kd / Kd of 1, replicate 3
[4] = Table S4, FA Kd of peptide divided by Kd of 1, mean of n = 3
[5] = Table S4, calculated from FA Kd, mean of n = 3
[6] = Table S4, from FA Kd, replicate 1
[7] = Table S4, from FA Kd, replicate 2
[8] = Table S4, from FA Kd, replicate 3
[9] = Table S4, ΔG minus ΔG of 1, FA, replicate 1
[10] = Table S4, ΔG minus ΔG of 1, FA, replicate 2
[11] = Table S4, ΔG minus ΔG of 1, FA, replicate 3
[12] = Table S4, ΔG of peptide minus ΔG of 1, FA, mean of n = 3

Compound	ΔΔG of point mutation (FA)	Affinity Kd (replicate 1)	Affinity Kd (replicate 2)	Affinity Kd (replicate 3)	Kd (mean of n = 3)	Fold change to 1 [1]	Fold change to 1 [2]	Fold change to 1 [3]	Fold change to 1 [4]	ΔG [5]	ΔG [6]	ΔG [7]	ΔG [8]	ΔΔG to 1 [9]	ΔΔG to 1 [10]	ΔΔG to 1 [11]	ΔΔG to 1 [12]	further results
CCC[C@H](NC(=O)[C@H](N)CCCCN)C(=O)N[C@@H](Cc1ccc([N+](=O)[O-])cc1)C(=O)NC(Cc1cscn1)C(=O)N[C@@H](COP(=O)(O)O)C(=O)N[C@@H](Cc1ccccc1)C(=O)N[C@@H](CO)CC(=O)NCCC(=O)N[C@@H](Cc1ccc([N+](=O)[O-])cc1)C(=O)N[C@@H](CCCCN)C(N)=O (stereo partly drawn) [4b] (H-[dK][Nva][Phe(4-NO2)][ξAla(4-thiazolyl)][pS]F[β3hS][βAla][Phe(4-NO2)]K-NH2; N-terminus and C-terminus assumed)	-0.1 ± 0.3 kcal/mol	0.046 µM	0.033 µM	0.087 µM	0.055 µM	0.9	0.5	1.2	0.8	-9.9 kcal/mol	-10.0 kcal/mol	-10.2 kcal/mol	-9.6 kcal/mol	-0.1 kcal/mol	-0.5 kcal/mol	0.1 kcal/mol	-0.1 kcal/mol	–
CCC[C@H](NC(=O)[C@H](N)CCCCN)C(=O)N[C@@H](Cc1ccc([N+](=O)[O-])cc1)C(=O)NC(Cc1cscn1)C(=O)N[C@@H](COP(=O)(O)O)C(=O)N[C@@H](C)C(=O)N[C@@H](CO)CC(=O)NCCC(=O)N[C@@H](Cc1ccc([N+](=O)[O-])cc1)C(=O)N[C@@H](CCCCN)C(N)=O (stereo partly drawn) [4c] (H-[dK][Nva][Phe(4-NO2)][ξAla(4-thiazolyl)][pS]A[β3hS][βAla][Phe(4-NO2)]K-NH2; N-terminus and C-terminus assumed)	1.8 ± 0.1 kcal/mol	1.2 µM	1.2 µM	1.6 µM	1.3 µM	24.0	17.0	21.3	20.8	-8.0 kcal/mol	-8.1 kcal/mol	-8.1 kcal/mol	-7.9 kcal/mol	1.9 kcal/mol	1.7 kcal/mol	1.8 kcal/mol	1.8 kcal/mol	–
CCC[C@H](NC(=O)[C@H](N)CCCCN)C(=O)N[C@@H](Cc1ccc([N+](=O)[O-])cc1)C(=O)NC(Cc1cscn1)C(=O)N[C@@H](COP(=O)(O)O)C(=O)N[C@@H](Cc1ccc([N+](=O)[O-])cc1)C(=O)N[C@@H](CO)CC(=O)NCCC(=O)N[C@@H](Cc1ccc(O)cc1)C(=O)N[C@@H](CCCCN)C(N)=O (stereo partly drawn) [5a] (H-[dK][Nva][Phe(4-NO2)][ξAla(4-thiazolyl)][pS][Phe(4-NO2)][β3hS][βAla]YK-NH2; N-terminus and C-terminus assumed)	–	1.7 µM	1.2 µM	1.7 µM	1.5 µM	33.2	17.1	22.5	24.2	-7.9 kcal/mol	-7.9 kcal/mol	-8.1 kcal/mol	-7.9 kcal/mol	2.1 kcal/mol	1.7 kcal/mol	1.8 kcal/mol	1.9 kcal/mol	14-3-3 binding affinity, result in words (replacement of nitro by hydroxy group at +4, compared with 5b, FA and ITC): did not restore the binding affinity
CCC[C@H](NC(=O)[C@H](N)CCCCN)C(=O)N[C@@H](Cc1ccc([N+](=O)[O-])cc1)C(=O)NC(Cc1cscn1)C(=O)N[C@@H](COP(=O)(O)O)C(=O)N[C@@H](Cc1ccc([N+](=O)[O-])cc1)C(=O)N[C@@H](CO)CC(=O)NCCC(=O)N[C@@H](Cc1ccccc1)C(=O)N[C@@H](CCCCN)C(N)=O (stereo partly drawn) [5b] (H-[dK][Nva][Phe(4-NO2)][ξAla(4-thiazolyl)][pS][Phe(4-NO2)][β3hS][βAla]FK-NH2; N-terminus and C-terminus assumed)	–	1.3 µM	1.2 µM	1.8 µM	1.4 µM	24.3	16.9	24.9	22.0	-8.0 kcal/mol	-8.0 kcal/mol	-8.1 kcal/mol	-7.8 kcal/mol	1.9 kcal/mol	1.7 kcal/mol	1.9 kcal/mol	1.8 kcal/mol	–
CCC[C@H](NC(=O)[C@H](N)CCCCN)C(=O)N[C@@H](Cc1ccc([N+](=O)[O-])cc1)C(=O)NC(Cc1cscn1)C(=O)N[C@@H](COP(=O)(O)O)C(=O)N[C@@H](Cc1ccc([N+](=O)[O-])cc1)C(=O)N[C@@H](CO)CC(=O)NCCC(=O)N[C@@H](C)C(=O)N[C@@H](CCCCN)C(N)=O (stereo partly drawn) [5c] (H-[dK][Nva][Phe(4-NO2)][ξAla(4-thiazolyl)][pS][Phe(4-NO2)][β3hS][βAla]AK-NH2; N-terminus and C-terminus assumed)	–	3.2 µM	2.2 µM	2.9 µM	2.8 µM	62.1	31.0	39.8	44.3	-7.6 kcal/mol	-7.5 kcal/mol	-7.7 kcal/mol	-7.5 kcal/mol	2.4 kcal/mol	2.0 kcal/mol	2.2 kcal/mol	2.2 kcal/mol	–
CCC[C@H](NC(=O)[C@H](N)CCCCN)C(=O)N[C@@H](Cc1ccc([N+](=O)[O-])cc1)C(=O)NC(Cc1cscn1)C(=O)N[C@@H](COP(=O)(O)O)C(=O)N[C@@H](Cc1ccc([N+](=O)[O-])cc1)C(=O)NC(CO)CC(=O)NCCC(=O)N[C@@H](Cc1ccc([N+](=O)[O-])cc1)C(=O)N[C@@H](CCCCN)C(N)=O (stereo partly drawn) [compound 1] (H-[dK][Nva][Phe(4-NO2)][ξAla(4-thiazolyl)][pS][Phe(4-NO2)][ξβ3hS][βAla][Phe(4-NO2)]K-NH2)	–	0.052 µM	0.071 µM	0.074 µM	–	–	–	–	–	-9.8 kcal/mol	-9.9 kcal/mol	-9.7 kcal/mol	-9.7 kcal/mol	–	–	–	–	ΔG (FA) (calculated from FA KD, mean of n = 3): -10.5 kcal/mol; ΔG (FA) (from FA KD, replicate 1): -10.6 kcal/mol; ΔG (FA) (from FA KD, replicate 2): -10.6 kcal/mol; ΔG (FA) (from FA KD, replicate 3): -10.4 kcal/mol; ΔG (Table S2, calculated from FA KD, mean of n = 3): -10,53 kcal/mol; ΔG (Table S2, from FA KD, replicate 1): -10,61 kcal/mol; ΔG (Table S2, from FA KD, replicate 2): -10,56 kcal/mol; ΔG (Table S2, from FA KD, replicate 3): -10,41 kcal/mol; free binding energy ΔG (FA) (from FA KD): -10.5 kcal/mol
